Values quoted from earlier work, collected in patent publication US20170119792A1, “METHODS AND COMPOSITIONS FOR DERMATOLOGICAL USE COMPRISING CLOBETASOL AND HALOBETASOL AND BIOPOLYMERS” (APEX LABORATORIES PRIVATE LIMITED, priority 2015, published 2017).

CCC(=O)O[C@]1(C(=O)CCl)[C@@H](C)C[C@H]2[C@@H]3CCC4=CC(=O)C=C[C@]4(C)[C@@]3(F)[C@@H](O)C[C@@]21C [Clobetasol propionate, (11β, 16β)-21-chloro-9-fluoro-11-hydroxy-16-methyl-17-(1-oxopropoxy)-pregna-1,4-diene-3, 20-dione]
solubility in water: insoluble in water

CCC(=O)O[C@]1(C(=O)CCl)[C@@H](C)C[C@H]2[C@@H]3C[C@H](F)C4=CC(=O)C=C[C@]4(C)[C@@]3(F)[C@@H](O)C[C@@]21C [Halobetasol propionate, 21-chloro-6α, 9-difluoro-11β, 17-dihydroxy-16β-methylpregna-1,4-diene-3, 20-dione17-propionate]
solubility in water: insoluble in water
